# According to patent publication US11091496B2, “Opioid ketal compounds and uses thereof” (priority 2013, dated 2021):
# Read-outs that look alike come from different tables or passages of the source.
# Experiments:
# [1] = 5% acetic acid 100° C.; for % Oxycodone, % IVA-IVD in hydrolysis mixture: unreacted oxycodone + four isomers of Formula IV; for % Oxycodone, % IVA-IVD in hydrolysis mixture / % Oxycodone, % Va-Vd in hydrolysis mixture: 1 mg/ml; for % Oxycodone, % Va-Vd in hydrolysis mixture: unreacted oxycodone + four isomers of Formula V
# [2] = type: physicochemical; details: 0.1 N HCl 37° C.; for % Oxycodone, % IVA-IVD in hydrolysis mixture: total 1 mg/ml; for Oxycodone in hydrolysis mixture: from isomer IVC tested separately; for Oxycodone in hydrolysis mixture / % Oxycodone, % IVD in hydrolysis mixture / % Oxycodone, % Ketal a, b in hydrolysis mixture / % Oxycodone, % Ketal A, B in hydrolysis mixture: 1 mg/ml; for Oxycodone in hydrolysis mixture / % Oxycodone, % IVD in hydrolysis mixture: normalized; for % Oxycodone, % IVD in hydrolysis mixture: isomer IVD tested separately; for % Oxycodone, % Ketal a, b in hydrolysis mixture: mixture of oxycodone 3,5-octanediol ketals; for % Oxycodone, % Ketal A, B in hydrolysis mixture: mixture of oxycodone cis 1,2-cyclohexanedimethanol ketals
# [3] = Hydrolysis in fresh EDTA stabilized blood plasma at 37° C.; details: mixture of isomers, 1.1 mg, four hour period
# [4] = Hydrolysis in Coca Cola, pH 4 buffer or pH 7 buffer, 3 days; type: physicochemical; details: 1 mg/ml; for Hydrolysis to Oxycodone: after 3 days
# [5] = Hydrolysis in Simulated Gastric Fluid (SGF) at 37° C., LC/MS; details: oxycodone 2,4-pentanediol ketal isomers + unreacted oxycodone, 2 mg/nil, SGF 37° C.
smiles,measurement,setting,value
"COc1ccc2c3c1O[C@H]1C4(CCC5(O)[C@@H](C2)N(C)CC[C@]315)OC(C)CC(C)O4 (some centres unmarked) [Formula IV, oxycodone 2,4-pentanediol ketal]",time to about 80% hydrolysis to oxycodone,[1]; FIG. 12,about 2 hours
same,time to almost completely hydrolyze to oxycodone,"[1]; FIG. 12, FIG. 13",about 10 hours
same,time at which about 50% of the oxycodone is released,[2]; mixture of isomers,about 2.9 hours
same,time by which about (almost) 90% oxycodone release occurs,[2]; mixture of isomers,≤ 25 h
same,ketal hydrolyzed to parent opioid in blood plasma,[3],approximately 6%
same,degree of hydrolysis after 3 days,"[4]; Coca Cola, pH 4 buffer, pH 7 buffer",very low degree of hydrolysis
same,Hydrolysis to Oxycodone,"[4]; Coca Cola, 23° C.",5%
same,Hydrolysis to Oxycodone,"[4]; pH 4 Buffer, 37° C.",4%
same,Hydrolysis to Oxycodone,"[4]; pH 7 Buffer, 37° C.",0%
"COc1ccc2c3c1O[C@H]1C(=O)CC[C@@]4(O)[C@@H](C2)N(C)CC[C@]314 [Oxycodone, oxycodone, reference compound]","% Oxycodone, % IVA-IVD in hydrolysis mixture",[1]; 0 h,10.3%
same,"% Oxycodone, % IVA-IVD in hydrolysis mixture",[1]; 0.5 h,55.8%
same,"% Oxycodone, % IVA-IVD in hydrolysis mixture",[1]; 1 h,69.6%
same,"% Oxycodone, % IVA-IVD in hydrolysis mixture",[1]; 2 h,83.9%
same,"% Oxycodone, % IVA-IVD in hydrolysis mixture",[1]; 4.35 h,87.9%
same,"% Oxycodone, % IVA-IVD in hydrolysis mixture",[1]; 10 h,95.2%
same,"% Oxycodone, % Va-Vd in hydrolysis mixture",[1]; 0 h,1%
same,"% Oxycodone, % Va-Vd in hydrolysis mixture",[1]; 0.33 h,31.8%
same,"% Oxycodone, % Va-Vd in hydrolysis mixture",[1]; 0.67 h,46.4%
same,"% Oxycodone, % Va-Vd in hydrolysis mixture",[1]; 1 h,56.5%
same,"% Oxycodone, % Va-Vd in hydrolysis mixture",[1]; 2 h,72.8%
same,"% Oxycodone, % Va-Vd in hydrolysis mixture",[1]; 4 h,85.4%
same,"Oxycodone, Ketal A-D in hydrolysis mixture",[5]; 0 h,7.3
same,"Oxycodone, Ketal A-D in hydrolysis mixture",[5]; 0.58 h,19.9
same,"Oxycodone, Ketal A-D in hydrolysis mixture",[5]; 1.25 h,35.3
same,"Oxycodone, Ketal A-D in hydrolysis mixture",[5]; 2 h,43
same,"Oxycodone, Ketal A-D in hydrolysis mixture",[5]; 3 h,51
same,"Oxycodone, Ketal A-D in hydrolysis mixture",[5]; 4 h,58.7
same,"% Oxycodone, % IVA-IVD in hydrolysis mixture",[2]; 0 h,11.4%
same,"% Oxycodone, % IVA-IVD in hydrolysis mixture",[2]; 0.583 h,25.5%
same,"% Oxycodone, % IVA-IVD in hydrolysis mixture",[2]; 1.167 h,33%
same,"% Oxycodone, % IVA-IVD in hydrolysis mixture",[2]; 1.75 h,44%
same,"% Oxycodone, % IVA-IVD in hydrolysis mixture",[2]; 2.33 h,47.6%
same,"% Oxycodone, % IVA-IVD in hydrolysis mixture",[2]; 2.92 h,50.9%
same,"% Oxycodone, % IVA-IVD in hydrolysis mixture",[2]; 4 h,56.8%
same,"% Oxycodone, % IVA-IVD in hydrolysis mixture",[2]; 6.5 h,66%
same,"% Oxycodone, % IVA-IVD in hydrolysis mixture",[2]; 9.75 h,72.6%
same,"% Oxycodone, % IVA-IVD in hydrolysis mixture",[2]; 13.75 h,79.7%
same,"% Oxycodone, % IVA-IVD in hydrolysis mixture",[2]; 25 h,86.4%
same,Oxycodone in hydrolysis mixture,[2]; 0 h,1.3
same,Oxycodone in hydrolysis mixture,[2]; 0.75 h,28.5
same,Oxycodone in hydrolysis mixture,[2]; 1.5 h,46
same,Oxycodone in hydrolysis mixture,[2]; 3.33 h,81.2
same,Oxycodone in hydrolysis mixture,[2]; 6 h,95.3
same,Oxycodone in hydrolysis mixture,[2]; 8 h,97.9
same,"% Oxycodone, % IVD in hydrolysis mixture",[2]; 0 h,0.8%
same,"% Oxycodone, % IVD in hydrolysis mixture",[2]; 0.17 h,26.9%
same,"% Oxycodone, % IVD in hydrolysis mixture",[2]; 0.33 h,55.2%
same,"% Oxycodone, % IVD in hydrolysis mixture",[2]; 1 h,89.2%
same,"% Oxycodone, % IVD in hydrolysis mixture",[2]; 2 h,98%
same,"% Oxycodone, % Ketal a, b in hydrolysis mixture",[2]; 0 h,0.3%
same,"% Oxycodone, % Ketal a, b in hydrolysis mixture",[2]; 0.33 h,12.1%
same,"% Oxycodone, % Ketal a, b in hydrolysis mixture",[2]; 1 h,26.5%
same,"% Oxycodone, % Ketal a, b in hydrolysis mixture",[2]; 2 h,40.7%
same,"% Oxycodone, % Ketal a, b in hydrolysis mixture",[2]; 4 h,56.1%
same,"% Oxycodone, % Ketal A, B in hydrolysis mixture",[2]; 0 h,27.2%
same,"% Oxycodone, % Ketal A, B in hydrolysis mixture",[2]; 0.56 h,28.1%
same,"% Oxycodone, % Ketal A, B in hydrolysis mixture",[2]; 1.25 h,33.8%
same,"% Oxycodone, % Ketal A, B in hydrolysis mixture",[2]; 2 h,37.4%
same,"% Oxycodone, % Ketal A, B in hydrolysis mixture",[2]; 4.45 h,56.4%
